Assays:
[1] = target: T1, entrapped dihydrofolate reductase (DHFR) (Escherichia coli, UniProt P0ABQ4); assay: FAC/ESI-MS/MS on monolithic column with entrapped DHFR; type: binding, E. coli; details: DHFR loaded column (25 pmol initial loading), compounds infused at 50 nM, 2 mM ammonium acetate, ESI/MS/MS detection
T1 construct: made in house

[2] = target: dihydrofolate reductase (DHFR) (Escherichia coli, UniProt P0ABQ4); details: cited from earlier work

| Compound | retention (elution) time [1] [min] | Kd [2] [µM] |
| --- | --- | --- |
| CC(=O)NC(=O)[C@H](O)[C@@H](O)[C@H](O)[C@H](O)CO [N-acetyl-gluconamide] | 1.5 | – |
| Nc1nc2ncc(CNc3ccc(C(=O)N[C@@H](CCC(=O)O)C(=O)O)cc3)nc2c(=O)[nH]1 [folic acid] | 3 | 11 |
